Reference: PubChem BioAssay (NCI)
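All cell lines were grown in 96-well plates and treated with compound for 48 hours. TGI marks complete inhibition of growth.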

Experiments:
Assay in all cases: DTP human tumour cell line panel, 48 h
786-0 renal = tested on: 786-0 renal
A549 NSCLC = tested on: A549 NSCLC
ACHN renal = tested on: ACHN renal
CAKI-1 renal = tested on: CAKI-1 renal
CCRF-CEM leukemia = tested on: CCRF-CEM leukemia
COLO 205 colon = tested on: COLO 205 colon
DLD-1 colon = tested on: DLD-1 colon
DMS 273 small cell lung = tested on: DMS 273 small cell lung
EKVX NSCLC = tested on: EKVX NSCLC
HCC-2998 colon = tested on: HCC-2998 colon
HCT-116 colon = tested on: HCT-116 colon
HCT-15 colon = tested on: HCT-15 colon
HL-60(TB) leukemia = tested on: HL-60(TB) leukemia
HOP-18 NSCLC = tested on: HOP-18 NSCLC
HOP-62 NSCLC = tested on: HOP-62 NSCLC
HOP-92 NSCLC = tested on: HOP-92 NSCLC
HT29 colon = tested on: HT29 colon
IGROV1 ovarian = tested on: IGROV1 ovarian
K-562 leukemia = tested on: K-562 leukemia
KM12 colon = tested on: KM12 colon
KM20L2 colon = tested on: KM20L2 colon
LOX IMVI melanoma = tested on: LOX IMVI melanoma
LXFL 529 NSCLC = tested on: LXFL 529 NSCLC
M14 melanoma = tested on: M14 melanoma
M19-MEL melanoma = tested on: M19-MEL melanoma
MALME-3M melanoma = tested on: MALME-3M melanoma
MOLT-4 leukemia = tested on: MOLT-4 leukemia
NCI-H226 lung = tested on: NCI-H226 lung
NCI-H23 lung = tested on: NCI-H23 lung
NCI-H460 lung = tested on: NCI-H460 lung
NCI-H522 lung = tested on: NCI-H522 lung
OVCAR-3 ovarian = tested on: OVCAR-3 ovarian
OVCAR-4 ovarian = tested on: OVCAR-4 ovarian
OVCAR-5 ovarian = tested on: OVCAR-5 ovarian
OVCAR-8 ovarian = tested on: OVCAR-8 ovarian
RPMI-8226 leukemia = tested on: RPMI-8226 leukemia
RXF 393 renal = tested on: RXF 393 renal
RXF-631 renal = tested on: RXF-631 renal
SF-268 CNS = tested on: SF-268 CNS
SF-295 CNS = tested on: SF-295 CNS
SF-539 CNS = tested on: SF-539 CNS
SK-MEL-2 melanoma = tested on: SK-MEL-2 melanoma
SK-MEL-28 melanoma = tested on: SK-MEL-28 melanoma
SK-MEL-5 melanoma = tested on: SK-MEL-5 melanoma
SK-OV-3 ovarian = tested on: SK-OV-3 ovarian
SN12C renal = tested on: SN12C renal
SNB-19 CNS = tested on: SNB-19 CNS
SNB-75 CNS = tested on: SNB-75 CNS
SNB-78 CNS = tested on: SNB-78 CNS
SR leukemia = tested on: SR leukemia
SW-620 colon = tested on: SW-620 colon
TK-10 renal = tested on: TK-10 renal
U251 CNS = tested on: U251 CNS
UACC-257 melanoma = tested on: UACC-257 melanoma
UACC-62 melanoma = tested on: UACC-62 melanoma
UO-31 renal = tested on: UO-31 renal
XF 498 CNS = tested on: XF 498 CNS
A498 renal = tested on: A498 renal
DMS 114 small cell lung = tested on: DMS 114 small cell lung

O=C(O/N=C1/CCCC/C1=C\c1ccccc1)c1ccc(Cl)c(Cl)c1
TGI (786-0 renal): 96.2 µM | TGI (A549 NSCLC): 32.3 µM | TGI (ACHN renal): 30.3 µM | TGI (CAKI-1 renal): 67.2 µM | TGI (CCRF-CEM leukemia): 53.2 µM | TGI (COLO 205 colon): 81.5 µM | TGI (DLD-1 colon): > 100 µM | TGI (DMS 273 small cell lung): 53.8 µM | TGI (EKVX NSCLC): > 100 µM | TGI (HCC-2998 colon): > 100 µM | TGI (HCT-116 colon): 26.4 µM | TGI (HCT-15 colon): > 100 µM | TGI (HL-60(TB) leukemia): 34.1 µM | TGI (HOP-18 NSCLC): > 100 µM | TGI (HOP-62 NSCLC): > 100 µM | TGI (HOP-92 NSCLC): > 100 µM | TGI (HT29 colon): 48.9 µM | TGI (IGROV1 ovarian): 52.5 µM | TGI (K-562 leukemia): 34.5 µM | TGI (KM12 colon): > 100 µM | TGI (KM20L2 colon): > 100 µM | TGI (LOX IMVI melanoma): 42.8 µM | TGI (LXFL 529 NSCLC): 27.9 µM | TGI (M14 melanoma): > 100 µM | TGI (M19-MEL melanoma): > 100 µM | TGI (MALME-3M melanoma): > 100 µM | TGI (MOLT-4 leukemia): 60.9 µM | TGI (NCI-H226 lung): > 100 µM | TGI (NCI-H23 lung): 36.7 µM | TGI (NCI-H460 lung): > 100 µM | TGI (NCI-H522 lung): 33.1 µM | TGI (OVCAR-3 ovarian): 41 µM | TGI (OVCAR-4 ovarian): 54.4 µM | TGI (OVCAR-5 ovarian): > 100 µM | TGI (OVCAR-8 ovarian): 32.5 µM | TGI (RPMI-8226 leukemia): > 100 µM | TGI (RXF 393 renal): 60.2 µM | TGI (RXF-631 renal): 31.8 µM | TGI (SF-268 CNS): 24.6 µM | TGI (SF-295 CNS): > 100 µM | TGI (SF-539 CNS): 60 µM | TGI (SK-MEL-2 melanoma): > 100 µM | TGI (SK-MEL-28 melanoma): 68.4 µM | TGI (SK-MEL-5 melanoma): > 100 µM | TGI (SK-OV-3 ovarian): > 100 µM | TGI (SN12C renal): > 100 µM | TGI (SNB-19 CNS): > 100 µM | TGI (SNB-75 CNS): 61.6 µM | TGI (SNB-78 CNS): 39.5 µM | TGI (SR leukemia): > 100 µM | TGI (SW-620 colon): 35.8 µM | TGI (TK-10 renal): 58.8 µM | TGI (U251 CNS): 32.9 µM | TGI (UACC-257 melanoma): > 100 µM | TGI (UACC-62 melanoma): 45.6 µM | TGI (UO-31 renal): 31.8 µM | TGI (XF 498 CNS): > 100 µM

O=C(O)CC(O)(c1ccccc1C(=O)O)c1cccc2ccccc12 (centres undefined)
TGI (786-0 renal): > 100 µM | TGI (A498 renal): > 100 µM | TGI (A549 NSCLC): > 100 µM | TGI (ACHN renal): > 100 µM | TGI (CAKI-1 renal): > 100 µM | TGI (CCRF-CEM leukemia): > 100 µM | TGI (COLO 205 colon): > 100 µM | TGI (DLD-1 colon): > 100 µM | TGI (DMS 114 small cell lung): > 100 µM | TGI (DMS 273 small cell lung): > 100 µM | TGI (EKVX NSCLC): > 100 µM | TGI (HCT-116 colon): > 100 µM | TGI (HCT-15 colon): > 100 µM | TGI (HL-60(TB) leukemia): > 100 µM | TGI (HOP-18 NSCLC): > 100 µM | TGI (HOP-62 NSCLC): > 100 µM | TGI (HOP-92 NSCLC): > 100 µM | TGI (HT29 colon): > 100 µM | TGI (IGROV1 ovarian): > 100 µM | TGI (K-562 leukemia): > 100 µM | TGI (KM12 colon): > 100 µM | TGI (LOX IMVI melanoma): > 100 µM | TGI (LXFL 529 NSCLC): > 100 µM | TGI (M14 melanoma): > 100 µM | TGI (M19-MEL melanoma): > 100 µM | TGI (MALME-3M melanoma): > 100 µM | TGI (MOLT-4 leukemia): > 100 µM | TGI (NCI-H226 lung): > 100 µM | TGI (NCI-H23 lung): > 100 µM | TGI (NCI-H460 lung): > 100 µM | TGI (NCI-H522 lung): > 100 µM | TGI (OVCAR-3 ovarian): > 100 µM | TGI (OVCAR-4 ovarian): > 100 µM | TGI (OVCAR-5 ovarian): > 100 µM | TGI (OVCAR-8 ovarian): > 100 µM | TGI (RPMI-8226 leukemia): > 100 µM | TGI (RXF 393 renal): > 100 µM | TGI (RXF-631 renal): > 100 µM | TGI (SF-268 CNS): > 100 µM | TGI (SF-295 CNS): > 100 µM | TGI (SF-539 CNS): > 100 µM | TGI (SK-MEL-2 melanoma): > 100 µM | TGI (SK-MEL-28 melanoma): > 100 µM | TGI (SK-MEL-5 melanoma): > 100 µM | TGI (SK-OV-3 ovarian): > 100 µM | TGI (SN12C renal): > 100 µM | TGI (SNB-19 CNS): > 100 µM | TGI (SNB-75 CNS): > 100 µM | TGI (SNB-78 CNS): > 100 µM | TGI (SR leukemia): > 100 µM | TGI (SW-620 colon): > 100 µM | TGI (TK-10 renal): > 100 µM | TGI (U251 CNS): > 100 µM | TGI (UACC-257 melanoma): > 100 µM | TGI (UACC-62 melanoma): > 100 µM | TGI (UO-31 renal): > 100 µM | TGI (XF 498 CNS): > 100 µM
